Data from PubChem BioAssay (NCI).
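In this assay, cells in 96-well plates receive the compound at five concentrations for 48 hours. Endpoints are linearly interpolated between the surrounding concentrations. The concentration for 50% growth inhibition is given as GI50. Definition used: TGI = concentration required for complete inhibition of growth.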

How the values were obtained:
Assay in all cases: NCI-60 cell line screen, 48 h
CAKI-1 renal = tested on: CAKI-1 renal
COLO 205 colon = tested on: COLO 205 colon
HL-60(TB) leukemia = tested on: HL-60(TB) leukemia
HOP-92 NSCLC = tested on: HOP-92 NSCLC
KM12 colon = tested on: KM12 colon
LOX IMVI melanoma = tested on: LOX IMVI melanoma
NCI-H460 lung = tested on: NCI-H460 lung
SF-539 CNS = tested on: SF-539 CNS
TK-10 renal = tested on: TK-10 renal
DU-145 prostate = tested on: DU-145 prostate

Row | SMILES | TGI (CAKI-1 renal) [µM] | TGI (COLO 205 colon) [µM] | TGI (HL-60(TB) leukemia) [µM] | TGI (HOP-92 NSCLC) [µM] | TGI (KM12 colon) [µM] | TGI (LOX IMVI melanoma) [µM] | TGI (NCI-H460 lung) [µM] | TGI (SF-539 CNS) [µM] | TGI (TK-10 renal) [µM] | GI50 (CAKI-1 renal) [µM] | GI50 (COLO 205 colon) [µM] | GI50 (DU-145 prostate) [µM] | TGI (DU-145 prostate) [µM] | GI50 (HOP-92 NSCLC) [µM] | GI50 (KM12 colon) [µM] | GI50 (LOX IMVI melanoma) [µM] | GI50 (NCI-H460 lung) [µM] | GI50 (SF-539 CNS) [µM] | GI50 (TK-10 renal) [µM]
1 | Cc1cccc(C)c1N1C(=O)C(=O)C(c2nc3ccccc3s2)/C(=N/NC(=O)c2ccccc2O)C1=O (configuration not stated) | > 29.8 | > 86.9 | 43.1 | > 67.5 | > 100 | > 100 | > 92 | 59.5 | > 100 | – | – | – | – | – | – | – | – | – | –
2 | N#CC(C#N)=Cc1ccc(CP(=O)(O)O)cc1 | > 100 | > 100 | > 100 | > 100 | > 100 | > 100 | > 100 | > 100 | > 100 | – | – | – | – | – | – | – | – | – | –
3 | COc1ccc2c(c1)NC1(O)c3ccccc3C(=O)C21O (configuration not stated) | > 100 | > 100 | > 100 | > 100 | > 100 | > 100 | > 100 | > 100 | > 100 | – | – | – | – | – | – | – | – | – | –
4 | O=S(=O)(N=NC=C1c2ccccc2N(O)c2ccccc21)c1ccc(Cl)cc1 | > 100 | > 100 | > 100 | > 100 | > 100 | > 100 | > 100 | – | > 100 | – | – | – | – | – | – | – | – | – | –
5 | CC1=NOC(=O)/C1=C/c1ccc([N+](=O)[O-])cc1 | > 100 | > 100 | > 100 | > 100 | > 100 | > 100 | > 100 | > 100 | > 100 | – | – | – | – | – | – | – | – | – | –
6 | COc1cc(C(=O)O[C@H](C(=O)NCCN(C)CCNC(=O)[C@@H](OC(=O)c2cc(OC)cc3c(C)cccc23)[C@]2(C)CO2)[C@]2(C)CO2)c2cccc(C)c2c1 | 0.0477 | 1.55 | – | 0.173 | 0.465 | – | 1.61 | 0.0504 | 1.57 | < 0.01 | 0.0391 | < 0.0328 | 0.162 | 0.0192 | 0.0549 | < 0.01 | < 0.01 | < 0.01 | 0.348
7 | CC(C)(C)N/N=C(\C(=O)Nc1nc(=S)[nH][nH]1)C1C(=O)Nc2ccccc2S1=O (configuration not stated) | > 100 | > 100 | > 100 | – | > 100 | > 100 | > 100 | > 100 | > 100 | – | – | – | – | – | – | – | – | – | –
8 | CC(=O)NNc1nc(C)c(C(=O)/C=C/c2ccc(Cl)cc2)s1 | > 100 | > 100 | > 100 | > 100 | > 100 | > 100 | > 100 | > 100 | > 100 | – | – | – | – | – | – | – | – | – | –
9 | CC(C)C(=O)c1c(C(F)(F)F)n([O-])c2cc(F)c(F)cc2[n+]1=O | 0.5 | 1.66 | – | 0.972 | 4.69 | – | 2.81 | 1 | 2.67 | 0.0626 | 0.427 | 0.592 | 1.72 | 0.191 | 1.83 | – | 0.811 | 0.381 | 0.976
10 | CCCCc1c2cnccc2c(CCCC)c2c1[nH]c1ccccc12 | 30.2 | 27.4 | – | 47.7 | 24.7 | 41.4 | > 100 | 12.6 | 34.6 | – | – | – | – | – | – | – | – | – | –
11 | Cc1nc(/C=C2\C(=O)C=Cc3ccccc32)c(O)o1 | – | > 100 | > 100 | > 100 | > 100 | – | > 100 | > 100 | – | – | – | – | – | – | – | – | – | – | –
12 | N/N=C(\c1nc2ccc(Cl)cc2[nH]c1=O)C(O)c1ccc(Cl)c(Cl)c1 (configuration not stated) | – | > 100 | > 100 | > 100 | > 100 | > 100 | > 100 | > 100 | > 100 | – | – | – | – | – | – | – | – | – | –
13 | COc1cc2c(cc1OC)C1Cc3ccc(OC)c(OC)c3C[N+]1([O-])CC2 (configuration not stated) | > 100 | – | – | – | > 100 | – | > 100 | > 100 | > 100 | – | – | – | – | – | – | – | – | – | –
14 | CC1CC(C)C2OC2(C)C[C@H](C)C(=O)NC(C)C(=O)N(C)[C@H](Cc2c(Br)[nH]c3ccccc23)C(=O)N[C@@H](c2ccc(O)cc2)CC(=O)O1 (some centres not stated) | 4.71 | 0.145 | 0.783 | 0.638 | > 100 | 1.66 | > 100 | 0.383 | 5.44 | – | – | – | – | – | – | – | – | – | –
15 | COc1ccc(C(=O)CC2=Nc3nnc(CCCCCCCc4nnc5n4C(=O)C(CC(=O)c4ccc(OC)cc4)=N5)n3C2=O)cc1 | > 100 | > 100 | > 100 | > 100 | > 100 | > 100 | > 100 | > 100 | > 100 | – | – | – | – | – | – | – | – | – | –
16 | COc1cc(C(C)c2cc3c(cc2OCCNC(=O)COc2cc4c(cc2C(C)c2cc(OC)c(OC)c(OC)c2)OCO4)OCO3)cc(OC)c1OC (configuration not stated) | > 100 | > 100 | > 100 | – | > 100 | > 100 | 49 | > 100 | > 100 | – | – | – | – | – | – | – | – | – | –
